Laboratory results from ChEMBL document CHEMBL5143519, “Exploring disordered loops in DprE1 provides a functional site to combat drug-resistance in Mycobacterium strains” (Eur J Med Chem, 2022).
In brackets after ≈: the same amount, converted by molar mass.

How the values were obtained:
[1] = system: Mycobacterium tuberculosis; experiment: Antimycobacterial activity against rifampin resistant Mycobacterium tuberculosis H37Rv assessed as inhibition of bacterial growth incubated for 7 days by microplate alamar blue assay; format: functional; conditions: 168 h, time 7 day
[2] = system: Mycobacterium tuberculosis; experiment: Antimycobacterial activity against multidrug-resistant Mycobacterium tuberculosis clinical isolate HD1 assessed as inhibition of bacterial growth incubated for 7 days by microplate alamar blue assay; format: functional; conditions: Clinical isolate HD1, 168 h, time 7 day
[3] = system: Mycobacterium tuberculosis; experiment: Antimycobacterial activity against multidrug-resistant Mycobacterium tuberculosis clinical isolate HD2 assessed as inhibition of bacterial growth incubated for 7 days by microplate alamar blue assay; format: functional; conditions: Clinical isolate HD2, 168 h, time 7 day
[4] = system: Mycobacterium tuberculosis; experiment: Antimycobacterial activity against multidrug-resistant Mycobacterium tuberculosis clinical isolate HD3 assessed as inhibition of bacterial growth incubated for 7 days by microplate alamar blue assay; format: functional; conditions: Clinical isolate HD3, 168 h, time 7 day
[5] = system: Mycobacterium tuberculosis; experiment: Antimycobacterial activity against multidrug-resistant Mycobacterium tuberculosis clinical isolate HD4 assessed as inhibition of bacterial growth incubated for 7 days by microplate alamar blue assay; format: functional; conditions: Clinical isolate HD4, 168 h, time 7 day
[6] = system: Mycobacterium tuberculosis; experiment: Antimycobacterial activity against multidrug-resistant Mycobacterium tuberculosis clinical isolate HD5 assessed as inhibition of bacterial growth incubated for 7 days by microplate alamar blue assay; format: functional; conditions: Clinical isolate HD5, 168 h, time 7 day
[7] = system: Mycobacterium tuberculosis; experiment: Antimycobacterial activity against Mycobacterium tuberculosis DprE1 C387S assessed as inhibition of bacterial growth incubated for 7 days by microplate alamar blue assay; format: functional; conditions: time 7 day
[8] = Inhibition of Mycobacterium tuberculosis DprE1 C387A mutant expressed in Escherichia coli BL21 DE3 assessed as formation of resorufin using FPR as substrate incubated for 10 mins by Amplex Red dye microplate assay
[9] = Inhibition of Mycobacterium tuberculosis DprE1 C387S mutant expressed in Escherichia coli BL21 DE3 assessed as formation of resorufin using FPR as substrate incubated for 10 mins by Amplex Red dye microplate assay
[10] = Inhibition of Mycobacterium tuberculosis DprE1 Y314A mutant expressed in Escherichia coli BL21 DE3 assessed as formation of resorufin using FPR as substrate incubated for 10 mins by Amplex Red dye microplate assay
[11] = Inhibition of Mycobacterium tuberculosis DprE1 K418A mutant expressed in Escherichia coli BL21 DE3 assessed as formation of resorufin using FPR as substrate incubated for 10 mins by Amplex Red dye microplate assay
[12] = system: Mycobacterium tuberculosis; experiment: Antimycobacterial activity against rifampin resistant Mycobacterium tuberculosis H37Rv assessed as reduction in bacterial colony forming units at 20 times MIC concentration measured after 21 days by time kill assay; format: functional; conditions: time 21 day

Work on `O=C(NC(=O)c1ccsc1NC(=O)c1nc2ccccc2s1)OCC1CCC1` yielded an MIC [1] of 6.01 µM (≈ 2.5 µg/mL), an MIC [2] of 1.88 µM (≈ 0.781 µg/mL) and an MIC [3] of 3.76 µM (≈ 1.56 µg/mL). The MIC [4] was 1.88 µM (≈ 0.781 µg/mL), the MIC [5] was 3.76 µM (≈ 1.56 µg/mL) and the MIC [6] was 3.76 µM (≈ 1.56 µg/mL).
`CO[C@H]1/C=C/O[C@@]2(C)Oc3c(C)c(O)c4c(O)c(c(/C=N/N5CCN(C)CC5)c(O)c4c3C2=O)NC(=O)/C(C)=C\C=C\[C@H](C)[C@H](O)[C@@H](C)[C@@H](O)[C@@H](C)[C@H](OC(C)=O)[C@@H]1C` [RIFAMPIN] showed an MIC [1] of 1.13 µM (≈ 0.93 µg/mL), an MIC [7] of 0.35 µM (≈ 0.288 µg/mL) and an MIC [2] of 1.9 µM (≈ 1.56 µg/mL). It also gave an MIC [3] of 3.82 µM (≈ 3.14 µg/mL), an MIC [4] of 0.95 µM (≈ 0.782 µg/mL) and an MIC [5] of 1.9 µM (≈ 1.56 µg/mL). The MIC [6] was 3.82 µM (≈ 3.14 µg/mL).
`NNC(=O)c1ccncc1` [ISONIAZID] showed an MIC [2] of 18.2 µM (≈ 2.5 µg/mL), an MIC [3] of 36.5 µM (≈ 5 µg/mL) and an MIC [4] of 9.11 µM (≈ 1.25 µg/mL). It also gave an MIC [5] of 18.2 µM (≈ 2.5 µg/mL) and an MIC [6] of 36.5 µM (≈ 5 µg/mL).
In the case of `COc1nc2ccc(Br)cc2cc1[C@@H](c1ccccc1)[C@@](O)(CCN(C)C)c1cccc2ccccc12` [BEDAQUILINE], the MIC [2] is reported as 0.07 µM (≈ 0.0389 µg/mL), the MIC [3] is reported as 0.29 µM (≈ 0.161 µg/mL) and the MIC [4] is reported as 0.14 µM (≈ 0.0778 µg/mL). The MIC [5] was 0.58 µM (≈ 0.322 µg/mL) and the MIC [6] was 0.07 µM (≈ 0.0389 µg/mL).
Work on `CC(=O)c1ccc(C(=O)Nc2sccc2C(=O)NC(=O)OCC2CC2)cc1` yielded an IC50 [8] of 3.33 µM and an IC50 [9] of 3.98 µM.
In the case of `O=C(NC(=O)c1ccsc1NC(=O)c1nc2ccccc2s1)OCC1CC1`, the IC50 [10] is reported as 0.029 µM, the IC50 [8] is reported as 0.069 µM and the IC50 [9] is reported as 0.059 µM. The IC50 [11] was 8.93 µM, the MIC [1] was 1.57 µM (≈ 0.63 µg/mL) and the MIC [7] was 1.57 µM (≈ 0.63 µg/mL). For the same compound, the MIC [2] was 1.94 µM (≈ 0.779 µg/mL), the MIC [3] was 3.88 µM (≈ 1.56 µg/mL) and the MIC [4] was 0.97 µM (≈ 0.389 µg/mL). It also gave an MIC [5] of 1.94 µM (≈ 0.779 µg/mL), an MIC [6] of 1.94 µM (≈ 0.779 µg/mL) and an Activity [12] of 3.5 log10CFU/ml.
In the case of `CCOC(=O)NC(=O)c1ccsc1NC(=O)c1nc2ccccc2s1`, the IC50 [10] is reported as 0.11 µM, the IC50 [8] is reported as 44 µM and the IC50 [9] is reported as 5.79 µM. It also gave an IC50 [11] of 65 µM, an MIC [1] of 3.32 µM (≈ 1.25 µg/mL) and an MIC [7] of 6.65 µM (≈ 2.5 µg/mL). The MIC [2] was 4.15 µM (≈ 1.56 µg/mL), the MIC [3] was 8.33 µM (≈ 3.13 µg/mL) and the MIC [4] was 2.07 µM (≈ 0.777 µg/mL). For the same compound, the MIC [5] was 8.33 µM (≈ 3.13 µg/mL), the MIC [6] was 8.33 µM (≈ 3.13 µg/mL) and the Activity [12] was 3.5 log10CFU/ml.
